{"source": "ChEMBL document CHEMBL1201862", "about": "“PubChem BioAssay data set” (2004)", "key": {"Hexokinase HKDC1": {"molecular_target": "T1, Hexokinase HKDC1 (Homo sapiens, UniProt Q2TB90)", "T1 sequence (Q2TB90 whole entry)": "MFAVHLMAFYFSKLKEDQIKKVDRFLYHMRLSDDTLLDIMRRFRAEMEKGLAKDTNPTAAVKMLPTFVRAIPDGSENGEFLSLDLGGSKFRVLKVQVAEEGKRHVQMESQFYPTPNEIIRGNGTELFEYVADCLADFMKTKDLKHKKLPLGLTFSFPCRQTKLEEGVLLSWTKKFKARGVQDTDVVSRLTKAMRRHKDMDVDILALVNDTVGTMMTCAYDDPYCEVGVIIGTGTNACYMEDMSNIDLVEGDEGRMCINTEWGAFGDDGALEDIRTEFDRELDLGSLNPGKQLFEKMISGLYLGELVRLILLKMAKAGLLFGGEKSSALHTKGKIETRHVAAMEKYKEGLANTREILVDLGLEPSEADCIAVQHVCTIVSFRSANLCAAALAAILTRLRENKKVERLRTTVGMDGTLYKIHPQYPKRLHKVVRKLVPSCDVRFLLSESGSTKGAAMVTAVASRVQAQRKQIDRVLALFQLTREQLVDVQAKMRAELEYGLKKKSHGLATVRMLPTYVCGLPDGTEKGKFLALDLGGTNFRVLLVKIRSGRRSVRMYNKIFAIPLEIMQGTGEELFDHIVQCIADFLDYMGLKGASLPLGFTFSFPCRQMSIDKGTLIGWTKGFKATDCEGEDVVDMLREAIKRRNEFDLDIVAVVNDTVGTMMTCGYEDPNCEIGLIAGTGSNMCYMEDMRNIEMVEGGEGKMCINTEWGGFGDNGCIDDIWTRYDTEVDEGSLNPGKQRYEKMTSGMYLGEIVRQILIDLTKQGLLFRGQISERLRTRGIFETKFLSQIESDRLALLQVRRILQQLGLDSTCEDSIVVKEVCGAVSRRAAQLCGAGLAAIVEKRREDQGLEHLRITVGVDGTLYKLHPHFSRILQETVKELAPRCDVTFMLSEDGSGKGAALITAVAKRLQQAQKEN", "experiment": "HKDC1 hexokinase inhibitors, dose response, biochemical, W721R variant (AID 504729)", "assay_type": "functional"}, "[1]": {"molecular_target": "T2, Microphthalmia-associated transcription factor (Homo sapiens, UniProt O75030)", "T2 sequence (O75030 whole entry)": "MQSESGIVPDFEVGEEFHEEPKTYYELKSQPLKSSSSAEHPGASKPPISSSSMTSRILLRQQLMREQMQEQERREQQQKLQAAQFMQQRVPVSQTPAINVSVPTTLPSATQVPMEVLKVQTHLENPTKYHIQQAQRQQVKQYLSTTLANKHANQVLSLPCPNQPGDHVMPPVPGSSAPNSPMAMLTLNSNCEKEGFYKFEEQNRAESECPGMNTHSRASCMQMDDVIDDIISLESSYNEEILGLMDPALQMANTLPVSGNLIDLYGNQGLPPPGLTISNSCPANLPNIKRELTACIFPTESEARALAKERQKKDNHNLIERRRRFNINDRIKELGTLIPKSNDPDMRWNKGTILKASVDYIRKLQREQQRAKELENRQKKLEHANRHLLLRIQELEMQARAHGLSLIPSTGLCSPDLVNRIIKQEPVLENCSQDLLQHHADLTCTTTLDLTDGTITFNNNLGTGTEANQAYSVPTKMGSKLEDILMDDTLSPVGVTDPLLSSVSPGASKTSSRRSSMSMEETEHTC", "experiment": "TRPM1 promoter luciferase signal decrease, dose response, MITF inhibitor project, cell-based, SK-MEL-5, cherry-picked, set 3 (AID 493073)", "assay_type": "functional"}, "Vero": {"system": "Vero", "experiment": "Vero cell cytotoxicity, cytotoxicity control for flavivirus capping enzyme inhibitors (AID 588742)", "assay_type": "functional", "conditions": "Chlorocebus sabaeus"}, "Genome polyprotein": {"molecular_target": "Genome polyprotein (dengue virus type 2, UniProt P29990)", "sequence (P29990 2492-3391 limits assumed)": "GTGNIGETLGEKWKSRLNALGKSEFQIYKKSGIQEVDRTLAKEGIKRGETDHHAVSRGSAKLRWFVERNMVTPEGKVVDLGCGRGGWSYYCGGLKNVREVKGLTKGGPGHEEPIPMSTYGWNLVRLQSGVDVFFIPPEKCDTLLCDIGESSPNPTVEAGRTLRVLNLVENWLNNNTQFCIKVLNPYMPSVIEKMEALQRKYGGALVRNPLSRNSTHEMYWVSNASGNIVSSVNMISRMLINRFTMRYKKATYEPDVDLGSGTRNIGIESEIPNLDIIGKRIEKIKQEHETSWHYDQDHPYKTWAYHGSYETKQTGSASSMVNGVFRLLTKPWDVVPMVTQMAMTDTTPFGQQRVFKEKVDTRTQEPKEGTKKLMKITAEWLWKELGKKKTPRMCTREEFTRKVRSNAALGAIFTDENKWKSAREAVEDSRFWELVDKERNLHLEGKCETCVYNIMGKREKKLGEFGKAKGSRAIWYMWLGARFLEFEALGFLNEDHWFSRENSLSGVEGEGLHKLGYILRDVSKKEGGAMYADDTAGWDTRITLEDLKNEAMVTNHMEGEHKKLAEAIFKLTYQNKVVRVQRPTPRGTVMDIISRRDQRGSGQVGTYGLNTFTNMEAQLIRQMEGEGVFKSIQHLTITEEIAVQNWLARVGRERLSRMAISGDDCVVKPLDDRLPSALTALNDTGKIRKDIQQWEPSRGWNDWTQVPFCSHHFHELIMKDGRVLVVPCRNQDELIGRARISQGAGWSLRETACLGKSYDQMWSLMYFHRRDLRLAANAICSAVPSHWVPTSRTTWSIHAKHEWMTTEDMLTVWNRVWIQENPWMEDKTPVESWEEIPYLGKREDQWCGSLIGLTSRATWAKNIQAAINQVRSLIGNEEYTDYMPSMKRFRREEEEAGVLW", "experiment": "Dengue-2 NS5 methyltransferase inhibitors, primary screen, biochemical, confirmation dose response (AID 588689)", "assay_type": "functional"}, "Caspase-6": {"molecular_target": "T3, Caspase-6 (Homo sapiens, UniProt P55212)", "T3 sequence (P55212 whole entry)": "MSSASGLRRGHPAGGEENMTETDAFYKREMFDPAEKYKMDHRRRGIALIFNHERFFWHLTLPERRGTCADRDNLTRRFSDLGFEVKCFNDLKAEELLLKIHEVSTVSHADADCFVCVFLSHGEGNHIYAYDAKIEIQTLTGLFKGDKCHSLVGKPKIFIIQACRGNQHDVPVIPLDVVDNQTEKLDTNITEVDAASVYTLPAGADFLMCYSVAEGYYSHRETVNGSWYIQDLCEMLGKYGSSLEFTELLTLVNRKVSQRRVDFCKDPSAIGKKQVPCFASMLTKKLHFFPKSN", "experiment": "human caspase-6 inhibitors, dose response, biochemical, VEID-R110 fluorescence, cherry-pick (AID 720632)"}, "[2]": {"molecular_target": "T4, Histone-lysine N-methyltransferase NSD2 (Homo sapiens, UniProt O96028)", "T4 sequence (O96028 whole entry)": "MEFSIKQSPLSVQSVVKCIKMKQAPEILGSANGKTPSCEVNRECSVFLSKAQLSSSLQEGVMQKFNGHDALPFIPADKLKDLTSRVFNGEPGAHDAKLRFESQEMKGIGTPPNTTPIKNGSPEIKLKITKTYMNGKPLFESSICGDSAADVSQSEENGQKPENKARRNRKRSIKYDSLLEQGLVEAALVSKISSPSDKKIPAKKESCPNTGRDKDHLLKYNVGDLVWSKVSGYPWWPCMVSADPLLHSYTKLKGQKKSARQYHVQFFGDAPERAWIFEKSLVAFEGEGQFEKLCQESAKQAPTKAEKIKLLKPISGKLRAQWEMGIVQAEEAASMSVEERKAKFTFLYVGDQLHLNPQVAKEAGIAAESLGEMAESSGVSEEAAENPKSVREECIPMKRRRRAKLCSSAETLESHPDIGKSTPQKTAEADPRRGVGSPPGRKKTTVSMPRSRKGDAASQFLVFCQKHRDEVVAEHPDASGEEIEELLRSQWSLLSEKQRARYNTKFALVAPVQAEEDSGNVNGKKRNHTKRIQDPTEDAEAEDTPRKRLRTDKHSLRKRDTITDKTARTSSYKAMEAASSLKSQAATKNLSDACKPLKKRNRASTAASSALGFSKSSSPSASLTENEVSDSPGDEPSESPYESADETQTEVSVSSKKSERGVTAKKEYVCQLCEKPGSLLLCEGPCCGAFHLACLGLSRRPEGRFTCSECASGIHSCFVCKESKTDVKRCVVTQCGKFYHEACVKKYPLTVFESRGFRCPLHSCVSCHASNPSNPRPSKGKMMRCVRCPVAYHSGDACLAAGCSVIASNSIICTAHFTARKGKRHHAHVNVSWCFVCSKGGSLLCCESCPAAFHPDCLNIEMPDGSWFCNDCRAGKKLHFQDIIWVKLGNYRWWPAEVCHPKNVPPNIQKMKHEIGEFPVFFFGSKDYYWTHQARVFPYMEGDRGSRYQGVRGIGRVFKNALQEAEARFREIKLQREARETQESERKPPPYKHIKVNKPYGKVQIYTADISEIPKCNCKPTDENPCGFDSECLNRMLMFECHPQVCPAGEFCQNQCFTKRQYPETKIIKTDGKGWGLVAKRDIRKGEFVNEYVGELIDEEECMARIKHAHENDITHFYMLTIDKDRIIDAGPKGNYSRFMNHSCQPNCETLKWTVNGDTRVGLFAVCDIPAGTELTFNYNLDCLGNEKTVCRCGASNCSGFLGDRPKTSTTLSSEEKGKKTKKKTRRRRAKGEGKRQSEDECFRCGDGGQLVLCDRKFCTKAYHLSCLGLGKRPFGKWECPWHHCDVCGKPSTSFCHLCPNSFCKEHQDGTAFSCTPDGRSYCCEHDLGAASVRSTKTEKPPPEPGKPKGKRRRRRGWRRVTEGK", "assay_type": "biochemical"}, "[3]": {"molecular_target": "Tyrosyl-DNA phosphodiesterase 2 (Homo sapiens, UniProt O95551)", "sequence (O95551 whole entry)": "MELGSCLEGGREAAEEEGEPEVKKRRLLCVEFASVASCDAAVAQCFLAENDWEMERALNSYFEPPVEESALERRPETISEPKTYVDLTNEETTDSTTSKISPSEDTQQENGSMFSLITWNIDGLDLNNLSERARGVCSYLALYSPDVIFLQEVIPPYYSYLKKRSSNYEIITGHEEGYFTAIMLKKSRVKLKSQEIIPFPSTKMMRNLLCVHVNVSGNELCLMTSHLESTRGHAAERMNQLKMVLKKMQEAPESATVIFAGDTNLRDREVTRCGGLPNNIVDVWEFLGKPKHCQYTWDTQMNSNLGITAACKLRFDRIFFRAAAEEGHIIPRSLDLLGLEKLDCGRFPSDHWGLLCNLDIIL", "experiment": "human TDP2 enzyme inhibitors, dose response, biochemical, epi absorbance, IC50 (AID 743297)"}, "Paired box protein Pax-8": {"molecular_target": "Paired box protein Pax-8 (Homo sapiens, UniProt Q06710)", "sequence (Q06710 whole entry)": "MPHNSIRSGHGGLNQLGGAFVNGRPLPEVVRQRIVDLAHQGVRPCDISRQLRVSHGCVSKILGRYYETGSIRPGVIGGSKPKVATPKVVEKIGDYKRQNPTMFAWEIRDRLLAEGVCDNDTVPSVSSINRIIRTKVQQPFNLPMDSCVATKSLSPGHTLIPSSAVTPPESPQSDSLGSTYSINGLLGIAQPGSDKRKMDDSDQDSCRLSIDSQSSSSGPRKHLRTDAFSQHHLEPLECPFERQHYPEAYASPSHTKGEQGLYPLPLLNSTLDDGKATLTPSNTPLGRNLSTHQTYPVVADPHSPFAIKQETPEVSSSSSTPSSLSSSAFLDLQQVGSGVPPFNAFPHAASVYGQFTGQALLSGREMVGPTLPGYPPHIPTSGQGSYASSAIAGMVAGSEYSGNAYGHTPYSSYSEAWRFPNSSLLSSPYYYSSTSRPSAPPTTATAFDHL", "experiment": "inhibitors of PAX8-driven TPO luciferase reporter, dose response, RMG-I cells, cherry-pick (AID 687027);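 note: luciferase reporter driven by Pax8 target thyroperoxidase promoter measured by SteadyGlo luminescence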", "assay_type": "functional, cell-based"}, "[4]": {"experiment": "IOSE-T80 ovarian epithelial cell cytotoxicity, dose response, cytotoxicity control for PAX8 inhibitor project, plate reader, dry powder samples (AID 743045)", "assay_type": "functional, cell-based"}, "[5]": {"experiment": "A2780 ovarian cancer cell cytotoxicity, dose response, cytotoxicity control, plate reader, dry powder samples (AID 743046)", "assay_type": "functional, cell-based"}, "[6]": {"experiment": "NIH:OVCAR-3 ovarian cancer cell cytotoxicity, dose response, PAX8 inhibitor project, plate reader, dry powder samples (AID 743044)", "assay_type": "functional, cell-based"}, "[7]": {"experiment": "non-specific cell cytotoxicity, dose response, cytotoxicity control for PAX8 inhibitor project, plate reader, dry powder samples (AID 743021)", "assay_type": "functional, cell-based"}, "[8]": {"molecular_target": "Protein disulfide-isomerase (Homo sapiens, UniProt P07237)", "sequence (P07237 whole entry)": "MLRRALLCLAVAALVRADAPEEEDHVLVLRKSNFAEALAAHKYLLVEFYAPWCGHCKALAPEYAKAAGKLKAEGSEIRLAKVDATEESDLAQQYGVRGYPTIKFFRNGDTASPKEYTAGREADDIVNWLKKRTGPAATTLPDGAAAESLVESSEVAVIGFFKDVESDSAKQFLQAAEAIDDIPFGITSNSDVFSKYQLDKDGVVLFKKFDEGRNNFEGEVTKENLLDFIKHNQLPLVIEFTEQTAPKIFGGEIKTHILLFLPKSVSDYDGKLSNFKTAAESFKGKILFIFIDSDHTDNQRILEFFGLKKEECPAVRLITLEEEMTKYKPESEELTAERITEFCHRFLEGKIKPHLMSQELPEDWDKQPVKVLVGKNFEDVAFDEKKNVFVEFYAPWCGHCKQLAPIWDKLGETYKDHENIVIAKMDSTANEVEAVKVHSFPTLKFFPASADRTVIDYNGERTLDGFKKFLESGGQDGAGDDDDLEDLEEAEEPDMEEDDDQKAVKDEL", "experiment": "PDI inhibitors, insulin turbidity readout, confirmation, biochemical, dry powder samples, set 2 (AID 652146)"}}, "note": "Calls of active or inactive are those of the source."}
{"molecule": "Cc1ccc(C)c(-n2c3nc(=O)[nH]c(=O)c-3cc3cc([N+](=O)[O-])ccc32)c1", "values": [{"measurement": "IC50", "setting": "Hexokinase HKDC1", "value": "12.9 µM (active)"}, {"measurement": "AC50", "setting": "[1]", "value": "8.42 µM (active)"}, {"measurement": "CC50", "setting": "Vero", "value": "14.5 µM (active)"}, {"measurement": "IC50", "setting": "Genome polyprotein", "value": "14.9 µM (active)"}, {"measurement": "AC50", "setting": "Caspase-6", "value": "20.7 µM (active)"}, {"measurement": "AC50", "setting": "[2]", "value": "> 20 µM (inactive)"}, {"measurement": "IC50", "setting": "[3]", "value": "> 128 µM (inactive)"}]}
{"molecule": "Cc1ccc(S(=O)(=O)Nc2ccc3c(c2)CC(=O)N([C@@H](C)CO)C[C@H](C)[C@@H](CN(C)Cc2ccc(Oc4ccccc4)cc2)O3)cc1", "values": [{"measurement": "AC50", "setting": "Paired box protein Pax-8", "value": "4.67 µM (active)"}, {"measurement": "AC50", "setting": "[4]", "value": "26.3 µM (active)"}, {"measurement": "AC50", "setting": "[5]", "value": "38.6 µM (active)"}, {"measurement": "AC50", "setting": "[6]", "value": "19.8 µM (active)"}, {"measurement": "AC50", "setting": "[7]", "value": "55 µM (active)"}]}
{"molecule": "CCOC(=O)C1(Cc2cccc(OC)c2)CCN(Cc2ccc(O)c(Cl)c2)CC1", "values": [{"measurement": "AC50", "setting": "[8]", "value": "> 30 µM (inactive)"}]}
